The subject of test [1] is Arabidopsis thaliana dNK enzyme (AT-dCK/dGK). Nature of the test: Deoxyribonucleoside kinase activity in extract of KY895 transformed with pGEX-2T-AT-dCK/dGK. The format is biochemical. The conditions noted are these: for ability to phosphorylate the deoxyribonucleoside (in words): pGEX-2T-AT-dCK/dGK. The procedure: (§1) Transformed KY895 strains were grown to an OD600 nm of 0.5-0.6 in LB/Ampicillin (100 μg/ml) medium at 37° C., and protein expression was induced by addition of 100 μM IPTG. The cells were further grown for 4 hours at 25° C. and subsequently harvested by centrifugation.
(§2) Pellets were stored at −80° C. until activity testing. Pellets were submitted to brief sonification in extraction buffer (50 mM Tris/HCl pH 7.5, 1 mM DTT, 10% (v/v) glycerol, 1% (v/v) Triton X-100, protease inhibitor cocktail (Complete™ from Roche Diagnostics).
(§3) Deoxyribonucleoside kinase activities were determined in the KY895 extracts by initial velocity measurements based on four time samples by the DE-81 filter paper assay using tritium-labelled nucleoside substrates. 4 to 20 μg extracts were used in the assays.
(§4) The four natural deoxyribonucleosides were tested at a fixed concentration of 100 μM. The highest specific activity in each extract was set to 100%.

For test [2], the system named is tomato dNK enzyme (TOM-dCK/dGK). Nature of the test: Deoxyribonucleoside kinase activity in extract of KY895 transformed with pGEX-2T-TOM-dCK/dGK. The format is biochemical, Lycopersicum esculentum. To be noted: for ability to phosphorylate the deoxyribonucleoside (in words): pGEX-2T-TOM-dCK/dGK. The procedure:
as §1, §2, §3, §4

Test [3] concerns C-terminally deleted tomato dNK enzyme (TOM-dCK/dGKΔC). Nature of the test: Deoxyribonucleoside kinase activity in extract of KY895 transformed with pGEX-2T-TOM-dCK/dGKΔC. It counts as biochemical, Lycopersicum esculentum. The conditions noted are these: for Deoxyribonucleoside kinase activity (relative): highest specific activity in extract = 100%. As for the experimental part: (§5) The E. coli strain KY895 (F^−, tdk-1, ilv) [Knecht W, Munch-Petersen B and Piskur J: Identification of residues involved in the specificity and regulation of the highly efficient multisubstrate deoxyribonucleoside kinase from Drosophila melanogaster; J. Mol. Biol. 2000 301 827-837] was transformed by various expression plasmids using standard techniques. Transformed KY895 strains were grown to an OD600 nm of 0.5-0.6 in LB/Ampicillin (100 μg/ml) medium at 37° C., and protein expression was induced by addition of 100 μM IPTG. The cells were further grown for 4 hours at 25° C. and subsequently harvested by centrifugation.
as §2
(§6) Deoxyribonucleoside kinase activities were determined in the KY895 extracts by initial velocity measurements based on four time samples by the DE-81 filter paper assay using tritium-labelled nucleoside substrates. 4 to 20 μg extracts were used in the assays. The assay was done as described by Munch-Petersen et al. [Munch-Petersen, B., Knecht, W, Lenz, C., Sondergaard, L. & Piskur, J: Functional expression of a multisubstrate deoxyribonucleoside kinase from Drosophila melanogaster and its C-terminal deletion mutants; J. Biol. Chem. 2000 275 6673-6679].
(§7) The protein concentration was determined according to Bradford with BSA as standard protein [Bradford M M: A rapid and sensitive method for the quantitation of microgram quantities of protein utilizing the principle of protein-dye binding; Anal. Biochem. 1976 72 248-254]. SDS-PAGE was done according to the procedure of Laemmli [Laemmli U K: Cleavage of structural proteins during the assembly of the head of bacteriophage T4; Nature 1970 227 680-685], and proteins were visualized by Coomassie staining to verify recombinant protein expression.
as §4

The test system of test [4] is N-terminally deleted tomato dNK enzyme (TOM-ΔNdCK/dGK). Description: Deoxyribonucleoside kinase activity in extract of KY895 transformed with pGEX-2T-TOM-ΔNdCK/dGK. It counts as biochemical, Lycopersicum esculentum. To be noted: for ability to phosphorylate the deoxyribonucleoside (in words): pGEX-2T-TOM-ΔNdCK/dGK. As for the experimental part:
as §5, §2, §6, §7, §4

Setting [5] is: extract of pGEX-2T-TOM-dCK/dGKΔC transformant, substrate 100 μM.

For the compound `Nc1nc2c(ncn2[C@H]2C[C@H](O)[C@@H](CO)O2)c(=O)[nH]1` [dGuo, deoxyguanosine], the “Deoxyribonucleoside kinase activity (relative)” value in test [1] (extract of pGEX-2T-AT-dCK/dGK transformant, substrate 100 μM, highest specific activity in extract = 100%) was determined as 91%; in test [2] (extract of pGEX-2T-TOM-dCK/dGK transformant, substrate 100 μM, highest specific activity in extract = 100%), 100%; in test [3] (setting [5]) it was 74%; in test [4] (extract of pGEX-2T-TOM-ΔNdCK/dGK transformant, substrate 100 μM, highest specific activity in extract = 100%), 100%. Moreover, the “ability to phosphorylate the deoxyribonucleoside (in words)” value in test [1], in test [2] and in test [4] was “able to phosphorylate” each time. For the same compound, the “specific activity corresponding to 100%” value is “(3.3) mU/mg” in test [2] (extract of pGEX-2T-TOM-dCK/dGK transformant, substrate 100 μM) and “(0.32) mU/mg” in test [4] (extract of pGEX-2T-TOM-ΔNdCK/dGK transformant, substrate 100 μM).

As to `Cc1cn([C@H]2C[C@H](O)[C@@H](CO)O2)c(=O)[nH]c1=O` [dThd, thymidine], the “ability to phosphorylate the deoxyribonucleoside (in words)” value in test [1], in test [2] and in test [4] was “not” each time. In test [3] (setting [5]), the “specific activity corresponding to 100%” value was “(0.27) mU/mg”. Also, in test [3] (setting [5]), the “Deoxyribonucleoside kinase activity (relative)” value is recorded as 100%. Further, the “substrate conversion (in words)” value in test [3] (pGEX-2T-TOM-dCK/dGKΔC) is given as “fastest converted substrate”.

The record behind these values is patent publication US7666639B2, “Plant deoxyribonucleoside kinase enzymes and their use” (priority 2002, dated 2010).
